Reference: patent publication US10399953B2, “Preparation of furan fatty acids from 5-(chloromethyl)furfural” (THE REGENTS OF THE UNIVERSITY OF CALIFORNIA, priority 2015, dated 2019)

Assay: 2,2-diphenyl-1-picrylhydrazyl (DPPH) radical scavenging assay
Assay type: biochemical
Details: for DPPH Scavenging %: 30 minutes, room temperature, dark, absorption at 517 nm; for antioxidant activity (quenching of the DPPH radical), in words: 25, 50 and 100 μg/mL
Excerpt: The antioxidant activity of the FFAs has been evaluated by a range of methods, including spin trapping of N-oxide radicals (Okada et al. (1996) Biol. Pharm. Bull. 19: 1607), inhibition of radically initiated oxygen uptake in linoleic acid (Okada et al. (1990) J. Am. Oil Chem. Soc. 67: 858) and unsaturated fatty acid moieties of phosphatidyl choline liposomes (Ishii et al. (1989) Chem. Pharm. Bull. 37: 1396), and acting as a substrate for plant lipoxygenase (Batna and Spiteller (1994) Lipids 29: 397). We have evaluated the free radical scavenging abilities of synthetic FFAs 5a (n=1, m=9, R^1=R^2=H) and 5b (n=1, m=9, R^1=R^2=Me) against butylated hydroxytoluene (BHT) by 2,2-diphenyl-1-picrylhydrazyl (DPPH) assay.
The method of Moon and Shibamoto (Moon and Shibamoto (2009) J. Agric. Food Chem. 57: 1655) was used to evaluate antioxidant activity. DPPH (0.0177 g) was dissolved in methanol (MeOH) (100 mL) and 500 μL of this solution was added into test tubes containing 11-(5-propylfuran-2-yl)undecanoic acid and 11-(3,4-dimethyl-5-propylfuran-2-yl)undecanoic acid at concentrations of 25, 50, and 100 μg/mL after dilution of stock solutions with MeOH to 1.0 mL total volume. A 1.0 mg/mL BHT stock solution (100 μL) was diluted with 400 μL methanol and the DPPH solution (500 μL). A control solution was prepared by adding methanol (500 μL) into the DPPH solution (500 μL), and a methanol blank was used for the baseline correction. The tubes were allowed to stand at room temperature in the dark for 30 minutes and the change in the absorption at 517 nm was measured by UV-visible spectrometry. Radical scavenging ability was expressed as DPPH scavenging % and calculated using this formula: DPPH scavenging %=(control abs.−sample abs./control abs.)×100.

Structure (SMILES)	inhibition (DPPH assay) (100 μg/mL) [%]	DPPH Scavenging % (100 μg/mL) [%]	DPPH Scavenging % (25 μg/mL) [%]	DPPH Scavenging % (50 μg/mL) [%]	antioxidant activity (quenching of the DPPH radical), in words	antioxidant power relative to BHT on a mass basis (of BHT, mass basis, 100 μg/mL) [%]	antioxidant power relative to BHT based on molar concentrations (of BHT, recalculated on molar concentrations) [%]
Cc1cc(C(C)(C)C)c(O)c(C(C)(C)C)c1 [BHT, butylated hydroxytoluene, reference compound]	93	93	–	–	–	–	–
CCCc1ccc(CCCCCCCCCCC(=O)O)o1 [Compound 5a, 11-(5-Propylfuran-2-yl)undecanoic Acid]	–	−3	4	−2	virtually no antioxidant activity	–	–
CCCc1oc(CCCCCCCCCCC(=O)O)c(C)c1C [Compound 5b, 11-(3,4-Dimethyl-5-propylfuran-2-yl)undecanoic Acid]	53	53	7	27	concentration-dependent quenching of the DPPH radical	57	83
